Consider 12 compounds from patent publication US10821115B2, “Compounds that inhibit Mcl-1 protein” (priority 2017, dated 2020).

Assay [1] has as its target recombinant human Mcl-1 (residues 171-327) / Bim interaction (Homo sapiens (Human), UniProt Q07820). Put plainly: biochemical. The format is binding. The settings on record: read-out: Mcl-1 HTRF IC50.
Assay [2] relates to human multiple myeloma cell line, OPM-2. Nature of the assay: Cell viability assay (OPM-2 10 FBS), CellTiter-Glo. Type of assay: cell-based. In outline:
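Serially diluted test compounds are incubated 16 h with cells (3000/well) in RPMI 1640 supplemented with 10% FBS. Viability is then measured by luminescence and IC50 calculated by 4-parameter logistic fit.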

Where [3] appears, read: TR-FRET, Mcl-1(171-327) / biotin-Bim (51-76).
Where [4] appears, read: read-out: OPM-2 10% FBS IC50 IP, OPM-2 cells, 10% FBS, 16 h, CellTiter-Glo.
Where [5] appears, read: Homo sapiens, OPM-2, 16 h, read-out: OPM-2 10% FBS IC50 IP, OPM-2 cells, 10% FBS, 16 h, CellTiter-Glo.
The mark [6] stands for this setting: 0.1 nM Mcl-1(171-327), 0.05 nM biotin-Bim (51-76).
The mark [7] stands for this setting: Homo sapiens, OPM-2, 16 h, read-out: OPM-2 10% FBS IC50 IP, OPM-2 cells, 10% FBS, 16 h incubation.
Where [8] appears, read: read-out: OPM-2 10% FBS IC50 IP, OPM-2 cells, 10% FBS, 16 h incubation.

Read-outs that look alike come from different tables or passages of the source.

recombinant human Mcl-1 (residues 171-327) / Bim interaction, sequence (Q07820 171-327): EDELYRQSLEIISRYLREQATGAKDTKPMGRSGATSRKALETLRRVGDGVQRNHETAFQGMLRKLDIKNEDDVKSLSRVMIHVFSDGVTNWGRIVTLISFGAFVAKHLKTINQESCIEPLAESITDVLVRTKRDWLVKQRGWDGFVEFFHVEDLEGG

On to `C[C@@H]1[C@@H](C)C/C=C/[C@@]2(COCCO2)[C@@H]2CC[C@H]2CN2C[C@@]3(CCCc4cc(Cl)ccc43)COc3ccc(cc32)C(=O)NS1(=O)=O` [Example 100233, (2S,3′R,6′R,8′E,11′S,12′R,22′S)-6″-chloro-11′,12′-dimethyl-3″,4″-dihydro-2″H,15′H-dispiro[1,4-dioxane-2,7′-[20]oxa[13]thia[1,14]diazatetracyclo [14.7.2.0~3,6~.0~19,24~]pentacosa[8,16,18,24]tetraene-22′,1″-naphthalen]-15′-one 13′,13′-dioxide], for which the IC50 in assay [1] (setting [3]) turned out to be 1.04 nM; in assay [2] (setting [4]), 257 nM.

For `C#C[C@]1(OC)/C=C/C[C@H](C)[C@@H](C)S(=O)(=O)NC(=O)c2ccc3c(c2)N(C[C@@H]2CC[C@H]21)C[C@@]1(CCCc2cc(Cl)ccc21)CO3` [Example 100502, (1S,3′R,6′R,7′S,8′E,11′S,12′R)-6-chloro-7′-ethynyl-7′-methoxy-11′,12′-dimethyl-3,4-dihydro-2H,15′H-spiro[naphthalene-1,22′-[20]oxa[13]thia[1,14]diazatetracyclo [14.7.2.0~3,6~.0~19,24~]pentacosa[8,16,18,24]tetraen]-15′-one 13′,13′-dioxide], the IC50 in assay [1] (setting [3]) came out at 0.29 nM; in assay [2] (setting [5]) it was 393 nM.

Consider `CO[C@@]1(CN2CCN(CCC#N)CC2)/C=C/C[C@H](C)[C@@H](C)S(=O)(=O)NC(=O)c2ccc3c(c2)N(C[C@@H]2CC[C@H]21)C[C@@]1(CCCc2cc(Cl)ccc21)CO3` [Example 318, 3-(4-(((1S,3′R,6′R,7′S,8′E,11′S, 12′R)-6-chloro-7′-methoxy-11′,12′-dimethyl-13′,13′-dioxido-15′-oxo-3,4-dihydro-2H-spiro[naphthalene-1,22′-[20]oxa[13]thia[1,14]diazatetracyclo [14.7.2.0~3,6~.0~19,24~]pentacosa[8,16,18,24]tetraen]-7′-yl)methyl)-1-piperazinyl)propanenitrile], for which the values for the IC50 in assay [1] (setting [6]) and in assay [2] (setting [7]) were 0.138 nM and 77 nM, respectively.

For the compound `C=CC(=O)N1CCN2CCN(C[C@]3(OC)/C=C/C[C@H](C)[C@@H](C)S(=O)(=O)NC(=O)c4ccc5c(c4)N(C[C@@H]4CC[C@H]43)C[C@@]3(CCCc4cc(Cl)ccc43)CO5)C[C@H]2C1` [Example 234], the concentration for half-maximal inhibition (IC50) in assay [1] (setting [6]) amounted to 0.163 nM; in assay [2] (setting [8]) it was 71 nM.

With `COC[C@H]1CN(C[C@]2(OC)/C=C/C[C@H](C)[C@@H](C)S(=O)(=O)NC(=O)c3ccc4c(c3)N(C[C@@H]3CC[C@H]32)C[C@@]2(CCCc3cc(Cl)ccc32)CO4)CCO1` [Example 199, (1S,3′R,6′R,7′S,8′E,11′S,12′R)-6-chloro-7′-methoxy-7′-(((2R)-2-(methoxymethyl)-4-morpholinyl)methyl)-11′,12′-dimethyl-3,4-dihydro-2H,15′H-spiro[naphthalene-1,22′-[20]oxa[13]thia[1,14]diazatetracyclo [14.7.2.0~3,6~.0~19,24~]pentacosa[8,16,18,24]tetraen]-15′-one 13′,13′-dioxide], the IC50 in assay [1] (setting [6]) turned out to be 0.119 nM; in assay [2] (setting [7]), 208 nM.

Regarding `CC[C@@H]1CC/C=C/[C@](CN2CCN(C)CC2)(OC)[C@@H]2CC[C@H]2CN2C[C@@]3(CCCc4cc(Cl)ccc43)COc3ccc(cc32)C(=O)NS1(=O)=O` [Example 31, (1S,3′R,6′R,7′S,8′E,12′R)-6-chloro-12′-ethyl-7′-methoxy-7′-((4-methyl-1-piperazinyl)methyl)-3,4-dihydro-2H,15′H-spiro[naphthalene-1,22′-[20]oxa[13]thia[1,14]diazatetracyclo [14.7.2.0~3,6~.0~19,24~]pentacosa[8,16,18,24]tetraen]-15′-one 13′,13′-dioxide], the IC50 came out at 0.184 nM in assay [1] (setting [6]) and 216 nM in assay [2] (setting [7]).

On to `COCCN(CCOC)C1CN(C[C@]2(OC)/C=C/C[C@H](C)[C@@H](C)S(=O)(=O)NC(=O)c3ccc4c(c3)N(C[C@@H]3CC[C@H]32)C[C@@]2(CCCc3cc(Cl)ccc32)CO4)C1` [Example 344, (1S,3′R,6′R,7′S,8′E,11′S,12′R)-7′-((3-(bis(2-methoxyethyl)amino)-1-azetidinyl)methyl)-6-chloro-7′-methoxy-11′,12′-dimethyl-3,4-dihydro-2H,15′H-spiro[naphthalene-1,22′-[20]oxa[13]thia[1,14]diazatetracyclo [14.7.2.0~3,6~.0~19,24~]pentacosa[8,16,18,24]tetraen]-15′-one 13′,13′-dioxide], for which the figures for the IC50 in assay [1] (setting [6]) and in assay [2] (setting [7]) were 0.116 nM and 57 nM, respectively.

For the compound `CO[C@]1(CN2CCN3CCC[C@@H]3C2)/C=C/C[C@H](C)[C@@H](C)S(=O)(=O)NC(=O)c2ccc3c(c2)N(C[C@@H]2CC[C@H]21)C[C@@]1(CCCc2cc(Cl)ccc21)CO3` [Example 83], the IC50 in assay [1] (setting [6]) was 0.223 nM; in assay [2] (setting [8]) it was 245 nM.

Consider `CC[C@@H]1CCCC[C@@](O)(CO)[C@@H]2CC[C@H]2CN2C[C@@]3(CCCc4cc(Cl)ccc43)COc3ccc(cc32)C(=O)NS1(=O)=O` [Example 100035, (1S,3′R,6′R,7′S,12′R)-6-chloro-12′-ethyl-7′-hydroxy-7′-(hydroxymethyl)-3,4-dihydro-2H,15′H-spiro[naphthalene-1,22′-[20]oxa[13]thia[1,14]diazatetracyclo [14.7.2.0~3,6~.0~19,24~]pentacosa[16,18,24]trien]-15′-one 13′,13′-dioxide], for which the IC50 in assay [1] (setting [3]) turned out to be 0.601 nM; in assay [2] (setting [5]) it was 1470 nM.

Regarding `CO[C@@]1(COCCN2CCOCC2)/C=C/C[C@H](C)[C@@H](C)S(=O)(=O)NC(=O)c2ccc3c(c2)N(C[C@@H]2CC[C@H]21)C[C@@]1(CCCc2cc(Cl)ccc21)CO3` [Example 100590, (1S,3′R,6′R,7′S,8′E,11′S,12′R)-6-chloro-7′-methoxy-11′,12′-dimethyl-7′-((2-(4-morpholinyl)ethoxy)methyl)-3,4-dihydro-2H,15′H-spiro[naphthalene-1,22′-[20]oxa[13]thia[1,14]diazatetracyclo [14.7.2.0~3,6~.0~19,24~]pentacosa[8,16,18,24]tetraen]-15′-one 13′,13′-dioxide], the IC50 in assay [1] (setting [3]) is 0.086 nM; in assay [2] (setting [5]), 501 nM.

With `CO[C@]1(C#CCN2CCOCC2)/C=C/C[C@H](C)[C@@H](C)S(=O)(=O)NC(=O)c2ccc3c(c2)N(C[C@@H]2CC[C@H]21)C[C@@]1(CCCc2cc(Cl)ccc21)CO3` [Example 100448, (1S,3′R,6′R,7′R,8′E,11′S,12′R)-6-chloro-7′-methoxy-11′,12′-dimethyl-7′-(3-(4-morpholinyl)-1-propyn-1-yl)-3,4-dihydro-2H,15′H-spiro[naphthalene-1,22′-[20]oxa[13]thia[1,14]diazatetracyclo [14.7.2.0~3,6~.0~19,24~]pentacosa[8,16,18,24]tetraen]-15′-one 13′,13′-dioxide], the IC50 in assay [1] (setting [3]) came to 0.373 nM; in assay [2] (setting [4]), 1920 nM.

With `CO[C@@]1(c2cnccn2)/C=C/C[C@H](C)[C@@H](C)S(=O)(=O)NC(=O)c2ccc3c(c2)N(C[C@@H]2CC[C@H]21)C[C@@]1(CCCc2cc(Cl)ccc21)CO3` (single isomer, unassigned) [Example 100379], the results for the half-inhibitory concentration (IC50) in assay [1] (setting [3]) and in assay [2] (setting [5]) were 0.06 nM and 71 nM, respectively.
